Blank lines part the entries; values can stand above or below the compound they belong to.
Legend:
Assay type in all cases: in vivo
[1] = Topical ibuprofen vehicle with tocopherol nicotinate applied to rabbits, ibuprofen in plasma over three hours
Method: (§1) Test formulations containing 15% ibuprofen-sodium salt, 5% oleic acid, 10% menthol, 5% propylene glycol, 10% dimethylacetamide, 1% decylmethylsulfoxide, 1% u-care, varying amounts of tocopherol nicotinate in the range of 0-1%, and 52-53% deionized water were each blended in a beaker with a mechanical mixer and heated to 40° C. for 30 minutes until clear, then cooled to room temperature.
(§2) 150 mg of sodium salt-ibuprofen was formulated with a 1-gram dose of the above lipid-based vehicle formulations containing the increasing amounts of the vasodilator tocopherol nicotinate. The Ibuprofen vehicle was topically applied to rabbits and blood samples were taken over a three-hour period. Plasma was prepared and analyzed for the amount of ibuprofen present in the blood. The data represents the integrated value of ibuprofen concentration in the blood for the three hour time period for each concentration of tocopherol nicotinate.

[2] = Topical ibuprofen vehicle with papaverine applied to rabbits, ibuprofen in plasma over three hours
Method: as §1, with “papaverine ranging from” for “tocopherol nicotinate in the range of”
as §2, with “with” for “with a 1-gram dose of”, “formulatiosn” for “formulations”, “containing” for “containing the”, “papaverine.” for “tocopherol nicotinate.”

[3] = Topical ibuprofen vehicle with tolazoline applied to rabbits, ibuprofen in plasma over three hours
Method: as §1, with “tolazoline ranging from 0-0.1%,” for “tocopherol nicotinate in the range of 0-1%,”, “52.9-53%” for “52-53%”
as §2, with “with” for “with a 1-gram dose of”, “formulatiosn” for “formulations”, “containing” for “containing the”, “tolazoline.” for “tocopherol nicotinate.”

blood flow = experiment: Maximal blood flow stimulated by vasodilator, laser Doppler perfusion imager
Method: Maximal blood flow stimulated by the vasodilator tolazoline was measured using a laser Doppler perfusion imager.

integrated value of ibuprofen concentration in the blood (0-3 hr) ([1]; 0.00010% tocopherol nicotinate in vehicle): 3980 ng·h/mL
integrated value of ibuprofen concentration in the blood (0-3 hr) ([1]; 0.00025% tocopherol nicotinate in vehicle): 9480 ng·h/mL
integrated value of ibuprofen concentration in the blood (0-3 hr) ([1]; 0.00050% tocopherol nicotinate in vehicle): 3120 ng·h/mL
integrated value of ibuprofen concentration in the blood (0-3 hr) ([1]; 0.0010% tocopherol nicotinate in vehicle): 5080 ng·h/mL
integrated value of ibuprofen concentration in the blood (0-3 hr) ([1]; 0.0100% tocopherol nicotinate in vehicle): 5840 ng·h/mL
integrated value of ibuprofen concentration in the blood (0-3 hr) ([1]; 0.100% tocopherol nicotinate in vehicle): 4300 ng·h/mL
integrated value of ibuprofen concentration in the blood (0-3 hr) ([1]; 1.000% tocopherol nicotinate in vehicle): 4400 ng·h/mL
integrated value of ibuprofen concentration in the blood (0-3 hr) ([1]; Control (no tocopherol nicotinate), 150 mg sodium salt-ibuprofen in 1 g vehicle): 1030 ng·h/mL
integrated value of ibuprofen concentration in the blood (0-3 hr) ([2]; 0.00010% papaverine in vehicle): 5120 ng·h/mL
integrated value of ibuprofen concentration in the blood (0-3 hr) ([2]; 0.00025% papaverine in vehicle): 4470 ng·h/mL
integrated value of ibuprofen concentration in the blood (0-3 hr) ([2]; 0.00050% papaverine in vehicle): 8370 ng·h/mL
integrated value of ibuprofen concentration in the blood (0-3 hr) ([2]; 0.0010% papaverine in vehicle): 7620 ng·h/mL
integrated value of ibuprofen concentration in the blood (0-3 hr) ([2]; 0.0100% papaverine in vehicle): 5720 ng·h/mL
integrated value of ibuprofen concentration in the blood (0-3 hr) ([2]; 0.100% papaverine in vehicle): 4230 ng·h/mL
integrated value of ibuprofen concentration in the blood (0-3 hr) ([2]; 1.000% papaverine in vehicle): 6160 ng·h/mL
integrated value of ibuprofen concentration in the blood (0-3 hr) ([2]; Control (no papaverine), 150 mg sodium salt-ibuprofen in vehicle): 1030 ng·h/mL
integrated value of ibuprofen concentration in the blood (0-3 hr) ([3]; 0.0010% tolazoline in vehicle): 3900 ng·h/mL
integrated value of ibuprofen concentration in the blood (0-3 hr) ([3]; 0.0050% tolazoline in vehicle): 5240 ng·h/mL
integrated value of ibuprofen concentration in the blood (0-3 hr) ([3]; 0.0100% tolazoline in vehicle): 5660 ng·h/mL
integrated value of ibuprofen concentration in the blood (0-3 hr) ([3]; 0.0500% tolazoline in vehicle): 3530 ng·h/mL
integrated value of ibuprofen concentration in the blood (0-3 hr) ([3]; 0.100% tolazoline in vehicle): 4530 ng·h/mL
integrated value of ibuprofen concentration in the blood (0-3 hr) ([3]; Control (no tolazoline), 150 mg sodium salt-ibuprofen in vehicle): 1030 ng·h/mL
Structure (SMILES): CC(C)Cc1ccc(C(C)C(=O)O)cc1 (centres unmarked) [Ibuprofen, ibuprofen]

Structure (SMILES): c1ccc(CC2=NCCN2)cc1 [tolazoline]
concentration at which the maximum blood flow was achieved (blood flow): 0.5%
